Key:
[1] = target: Dual specificity mitogen-activated protein kinase kinase 2 (Homo sapiens) (UniProt P36507); assay: Inhibition of MEK2 at 10 uM
[2] = target: Tyrosine-protein kinase ABL2 (Homo sapiens) (UniProt P42684); assay: Inhibition of ABL2 at 10 uM
[3] = target: Ribosomal protein S6 kinase beta-1 (Homo sapiens) (UniProt P23443); assay: Inhibition of p70S6K at 10 uM
[4] = Selectivity ratio of p38alpha over p38beta
[5] = target: NT-3 growth factor receptor (Homo sapiens) (UniProt Q16288); assay: Inhibition of TRKC at 10 uM
[6] = target: Serine/threonine-protein kinase PAK 5 (Homo sapiens) (UniProt Q9P286); assay: Inhibition of PAK7 at 10 uM
[7] = target: Calcium/calmodulin-dependent protein kinase type II subunit alpha (Homo sapiens) (UniProt Q9UQM7); assay: Inhibition of CAMK2alpha at 10 uM
Chain of Calcium/calmodulin-dependent protein kinase type II subunit alpha (Homo sapiens) (Q9UQM7 whole entry): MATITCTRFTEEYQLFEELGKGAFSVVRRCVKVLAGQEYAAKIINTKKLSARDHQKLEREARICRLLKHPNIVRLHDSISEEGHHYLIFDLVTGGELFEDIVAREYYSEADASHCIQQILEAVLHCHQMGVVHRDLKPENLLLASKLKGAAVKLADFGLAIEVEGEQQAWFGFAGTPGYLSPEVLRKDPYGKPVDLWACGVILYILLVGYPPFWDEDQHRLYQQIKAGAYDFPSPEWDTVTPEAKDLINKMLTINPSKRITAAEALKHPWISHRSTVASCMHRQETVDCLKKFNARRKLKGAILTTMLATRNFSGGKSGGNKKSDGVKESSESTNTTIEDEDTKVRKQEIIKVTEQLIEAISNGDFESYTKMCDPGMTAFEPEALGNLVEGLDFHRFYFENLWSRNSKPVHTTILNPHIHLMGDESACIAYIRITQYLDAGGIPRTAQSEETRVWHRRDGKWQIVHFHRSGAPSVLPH

[8] = target: Protein kinase C alpha type (Homo sapiens) (UniProt P17252); assay: Inhibition of PKCalpha at 10 uM
[9] = Oral bioavailability in Sprague-Dawley rat; assay type: ADME, organism-based; conditions: in vivo
[10] = target: Tyrosine-protein kinase Fgr (Homo sapiens) (UniProt P09769); assay: Inhibition of FGR at 10 uM
[11] = target: Serine/threonine-protein kinase Sgk3 (Homo sapiens) (UniProt Q96BR1); assay: Inhibition of SGK3 at 10 uM
[12] = target: MAP kinase-activated protein kinase 2 (Homo sapiens) (UniProt P49137); assay: Inhibition of MAPKAPK2 at 10 uM
Chain of MAP kinase-activated protein kinase 2 (Homo sapiens) (P49137 whole entry, looked up): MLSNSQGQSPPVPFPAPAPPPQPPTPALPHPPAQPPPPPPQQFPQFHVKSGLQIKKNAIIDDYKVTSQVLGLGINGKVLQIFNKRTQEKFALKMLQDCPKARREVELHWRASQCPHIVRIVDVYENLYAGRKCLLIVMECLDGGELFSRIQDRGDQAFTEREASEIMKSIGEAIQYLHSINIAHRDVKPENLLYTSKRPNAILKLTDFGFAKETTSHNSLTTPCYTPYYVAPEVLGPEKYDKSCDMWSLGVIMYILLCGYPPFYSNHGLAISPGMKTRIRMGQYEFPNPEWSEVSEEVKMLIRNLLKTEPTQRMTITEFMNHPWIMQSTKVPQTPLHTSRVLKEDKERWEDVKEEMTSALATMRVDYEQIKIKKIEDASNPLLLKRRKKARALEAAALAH

[13] = target: T1, Mitogen-activated protein kinase 14 (Homo sapiens, UniProt Q16539); assay: Inhibition of p38alpha at 10 uM
T1 sequence (Q16539 whole entry): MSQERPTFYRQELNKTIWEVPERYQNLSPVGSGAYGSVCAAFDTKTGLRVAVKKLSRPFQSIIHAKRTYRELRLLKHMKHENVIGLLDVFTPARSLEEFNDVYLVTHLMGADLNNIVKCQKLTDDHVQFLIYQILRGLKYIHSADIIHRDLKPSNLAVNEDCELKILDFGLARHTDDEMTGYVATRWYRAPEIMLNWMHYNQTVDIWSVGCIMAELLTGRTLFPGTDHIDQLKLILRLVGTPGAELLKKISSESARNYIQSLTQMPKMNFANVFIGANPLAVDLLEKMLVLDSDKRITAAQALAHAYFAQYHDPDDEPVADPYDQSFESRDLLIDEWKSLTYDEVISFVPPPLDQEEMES

[14] = target: Rho-associated protein kinase 1 (Homo sapiens) (UniProt Q13464); assay: Inhibition of ROCK1 at 10 uM
[15] = test system: Platelet-derived growth factor receptor alpha (Homo sapiens), P16234 [V561D]; assay: Inhibition of PDGFRalpha V561D (mutant) at 10 uM
[16] = target: Death-associated protein kinase 3 (Homo sapiens) (UniProt O43293); assay: Inhibition of ZIPK at 10 uM
[17] = target: Serine/threonine-protein kinase MRCK alpha (Homo sapiens) (UniProt Q5VT25); assay: Inhibition of MRCKalpha at 10 uM
[18] = target: Tyrosine-protein kinase JAK1 (Homo sapiens) (UniProt P23458); assay: Inhibition of JAK1 at 10 uM
Chain of Tyrosine-protein kinase JAK1 (Homo sapiens) (P23458 whole entry): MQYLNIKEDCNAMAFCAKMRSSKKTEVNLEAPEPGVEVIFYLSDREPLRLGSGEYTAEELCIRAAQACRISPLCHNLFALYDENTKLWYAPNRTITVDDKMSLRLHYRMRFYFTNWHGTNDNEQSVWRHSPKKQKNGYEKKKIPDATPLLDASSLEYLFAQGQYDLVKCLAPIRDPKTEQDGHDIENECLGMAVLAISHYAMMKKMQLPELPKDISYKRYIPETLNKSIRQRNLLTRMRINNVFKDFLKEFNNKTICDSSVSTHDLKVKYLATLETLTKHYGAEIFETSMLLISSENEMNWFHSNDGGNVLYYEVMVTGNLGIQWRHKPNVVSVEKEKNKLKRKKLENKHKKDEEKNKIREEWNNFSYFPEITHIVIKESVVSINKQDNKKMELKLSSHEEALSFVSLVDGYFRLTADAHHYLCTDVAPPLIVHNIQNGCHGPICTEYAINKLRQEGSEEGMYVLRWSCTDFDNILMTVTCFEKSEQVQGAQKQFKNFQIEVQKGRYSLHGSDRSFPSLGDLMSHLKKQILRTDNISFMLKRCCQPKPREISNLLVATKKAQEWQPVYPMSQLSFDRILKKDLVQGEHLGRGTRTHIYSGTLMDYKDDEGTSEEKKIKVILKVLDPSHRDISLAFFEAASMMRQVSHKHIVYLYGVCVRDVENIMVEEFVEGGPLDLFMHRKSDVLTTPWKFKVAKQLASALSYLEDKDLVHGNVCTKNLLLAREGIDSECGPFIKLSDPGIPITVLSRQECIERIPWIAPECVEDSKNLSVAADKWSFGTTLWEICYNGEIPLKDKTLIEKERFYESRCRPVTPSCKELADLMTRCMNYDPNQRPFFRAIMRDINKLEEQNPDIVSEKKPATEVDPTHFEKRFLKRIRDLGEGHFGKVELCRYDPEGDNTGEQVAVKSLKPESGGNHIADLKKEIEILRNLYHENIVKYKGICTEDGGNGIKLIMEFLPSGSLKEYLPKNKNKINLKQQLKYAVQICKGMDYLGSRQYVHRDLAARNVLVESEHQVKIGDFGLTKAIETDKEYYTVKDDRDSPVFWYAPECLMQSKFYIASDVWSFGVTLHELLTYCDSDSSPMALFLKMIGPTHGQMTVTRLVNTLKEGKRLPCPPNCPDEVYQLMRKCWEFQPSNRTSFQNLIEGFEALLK

[19] = target: BDNF/NT-3 growth factors receptor (Homo sapiens) (UniProt Q16620); assay: Inhibition of TRKB at 10 uM
[20] = target: T1, Mitogen-activated protein kinase 14; assay: Inhibition of p38alpha
[21] = target: Muscle, skeletal receptor tyrosine-protein kinase (Homo sapiens) (UniProt O15146); assay: Inhibition of MUSK at 10 uM
[22] = target: Ephrin type-A receptor 4 (Homo sapiens) (UniProt P54764); assay: Inhibition of EPHA4 at 10 uM
[23] = target: G protein-coupled receptor kinase 3 (Homo sapiens) (UniProt P35626); assay: Inhibition of GRK3 at 10 uM
[24] = target: Ephrin type-A receptor 5 (Homo sapiens) (UniProt P54756); assay: Inhibition of EPHA5 at 10 uM
[25] = target: Casein kinase I isoform gamma-1 (Homo sapiens) (UniProt Q9HCP0); assay: Inhibition of CSNK1G1 at 10 uM
[26] = target: Macrophage colony-stimulating factor 1 receptor (Homo sapiens) (UniProt P07333); assay: Inhibition of CSF1R at 10 uM
[27] = target: Dual specificity tyrosine-phosphorylation-regulated kinase 1B (Homo sapiens) (UniProt Q9Y463); assay: Inhibition of DYRK1B at 10 uM
[28] = target: Fibroblast growth factor receptor 2 (Homo sapiens) (UniProt P21802); assay: Inhibition of FGFR2 at 10 uM
[29] = target: Mitogen-activated protein kinase kinase kinase kinase 4 (Homo sapiens) (UniProt O95819); assay: Inhibition of HGK at 10 uM
[30] = target: Tyrosine-protein kinase Yes (Homo sapiens) (UniProt P07947); assay: Inhibition of YES1 at 10 uM
Chain of Tyrosine-protein kinase Yes (Homo sapiens) (P07947 2-543 limits assumed): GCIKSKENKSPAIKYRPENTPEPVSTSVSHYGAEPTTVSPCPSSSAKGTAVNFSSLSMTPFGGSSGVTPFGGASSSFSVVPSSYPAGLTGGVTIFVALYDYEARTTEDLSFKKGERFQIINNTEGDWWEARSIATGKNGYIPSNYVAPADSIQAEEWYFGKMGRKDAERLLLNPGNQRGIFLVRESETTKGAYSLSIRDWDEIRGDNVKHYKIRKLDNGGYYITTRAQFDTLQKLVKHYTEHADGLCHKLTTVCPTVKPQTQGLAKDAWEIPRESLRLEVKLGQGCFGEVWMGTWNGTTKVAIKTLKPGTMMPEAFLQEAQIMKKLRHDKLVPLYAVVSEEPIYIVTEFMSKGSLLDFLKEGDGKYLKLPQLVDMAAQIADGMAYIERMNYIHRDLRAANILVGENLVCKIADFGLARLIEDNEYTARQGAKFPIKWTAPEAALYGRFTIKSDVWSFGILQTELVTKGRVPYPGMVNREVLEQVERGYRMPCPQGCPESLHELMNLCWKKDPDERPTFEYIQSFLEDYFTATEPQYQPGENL

[31] = target: AMP-activated protein kinase, AMPK (Homo sapiens) (UniProt P54646+O43741+P54619+Q9UGJ0+Q9Y478+Q13131+Q9UGI9); assay: Inhibition of AMPK alpha-2/beta-1/gamma-1 at 10 uM; assay type: protein-complex assay
[32] = target: Serine/threonine-protein kinase Nek6 (Homo sapiens) (UniProt Q9HC98); assay: Inhibition of NEK6 at 10 uM
[33] = target: Serine/threonine-protein kinase PLK3 (Homo sapiens) (UniProt Q9H4B4); assay: Inhibition of PLK3 at 10 uM
[34] = target: cAMP-dependent protein kinase catalytic subunit PRKX (Homo sapiens) (UniProt P51817); assay: Inhibition of PRKX at 10 uM
[35] = target: Serine/threonine-protein kinase Nek2 (Homo sapiens) (UniProt P51955); assay: Inhibition of NEK2 at 10 uM
Chain of Serine/threonine-protein kinase Nek2 (Homo sapiens) (P51955 whole entry): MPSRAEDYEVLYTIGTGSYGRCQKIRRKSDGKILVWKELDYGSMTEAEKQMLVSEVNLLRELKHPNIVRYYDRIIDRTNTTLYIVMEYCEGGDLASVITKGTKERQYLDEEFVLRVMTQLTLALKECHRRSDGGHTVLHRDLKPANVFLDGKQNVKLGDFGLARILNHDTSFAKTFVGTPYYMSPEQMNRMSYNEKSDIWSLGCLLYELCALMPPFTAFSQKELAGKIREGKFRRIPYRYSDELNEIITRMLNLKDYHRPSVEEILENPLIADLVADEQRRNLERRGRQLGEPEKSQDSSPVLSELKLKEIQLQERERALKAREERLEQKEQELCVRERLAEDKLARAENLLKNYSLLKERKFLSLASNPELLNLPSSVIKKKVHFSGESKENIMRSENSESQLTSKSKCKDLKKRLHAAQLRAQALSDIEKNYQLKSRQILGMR

[36] = target: Ribosomal protein S6 kinase alpha-3 (Homo sapiens) (UniProt P51812); assay: Inhibition of RSK2 at 10 uM
[37] = target: Cyclin-dependent kinase 2/cyclin A (Homo sapiens) (UniProt P24941+P20248+P78396); assay: Inhibition of CDK2/cyclinA at 10 uM; assay type: protein-complex assay
[38] = target: Leucine-rich repeat serine/threonine-protein kinase 2 (Homo sapiens) (UniProt Q5S007); assay: Inhibition of LRRK2 at 10 uM
[39] = target: MAP kinase-activated protein kinase 5 (Homo sapiens) (UniProt Q8IW41); assay: Inhibition of PRAK at 10 uM
[40] = target: Serine/threonine-protein kinase pim-2 (Homo sapiens) (UniProt Q9P1W9); assay: Inhibition of PIM2 at 10 uM
[41] = target: Serine/threonine-protein kinase Nek4 (Homo sapiens) (UniProt P51957); assay: Inhibition of NEK4 at 10 uM
Chain of Serine/threonine-protein kinase Nek4 (Homo sapiens) (P51957 whole entry, looked up): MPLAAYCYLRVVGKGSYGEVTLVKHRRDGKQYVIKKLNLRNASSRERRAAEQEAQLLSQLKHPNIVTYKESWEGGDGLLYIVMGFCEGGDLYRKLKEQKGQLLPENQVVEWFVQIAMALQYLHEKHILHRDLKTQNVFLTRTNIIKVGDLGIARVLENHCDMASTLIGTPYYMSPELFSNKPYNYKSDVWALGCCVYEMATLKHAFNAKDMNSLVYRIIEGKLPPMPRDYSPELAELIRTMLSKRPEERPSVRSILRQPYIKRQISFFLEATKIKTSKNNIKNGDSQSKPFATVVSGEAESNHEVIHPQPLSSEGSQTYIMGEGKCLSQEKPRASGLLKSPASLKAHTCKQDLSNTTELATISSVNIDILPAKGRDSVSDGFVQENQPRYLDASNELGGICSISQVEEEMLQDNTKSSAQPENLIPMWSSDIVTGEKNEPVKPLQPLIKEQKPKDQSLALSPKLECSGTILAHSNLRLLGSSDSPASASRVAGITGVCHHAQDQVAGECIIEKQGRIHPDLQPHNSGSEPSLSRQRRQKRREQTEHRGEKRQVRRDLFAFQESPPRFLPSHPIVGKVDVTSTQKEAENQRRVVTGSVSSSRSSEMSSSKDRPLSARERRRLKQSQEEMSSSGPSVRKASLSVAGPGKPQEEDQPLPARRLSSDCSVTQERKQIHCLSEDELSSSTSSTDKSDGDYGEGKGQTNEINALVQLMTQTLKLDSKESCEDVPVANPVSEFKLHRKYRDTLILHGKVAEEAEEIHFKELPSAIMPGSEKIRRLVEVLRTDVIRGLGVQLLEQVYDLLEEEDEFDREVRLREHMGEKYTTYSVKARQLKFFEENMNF

[42] = target: Homeodomain-interacting protein kinase 4 (Homo sapiens) (UniProt Q8NE63); assay: Inhibition of HIPK4 at 10 uM
[43] = target: Testis-specific serine/threonine-protein kinase 1 (Homo sapiens) (UniProt Q9BXA7); assay: Inhibition of TSSK1 at 10 uM
[44] = target: Protein kinase C iota type (Homo sapiens) (UniProt P41743); assay: Inhibition of PKCiota at 10 uM
[45] = target: Tyrosine-protein kinase Blk (Homo sapiens) (UniProt P51451); assay: Inhibition of BLK at 10 uM
[46] = target: MAP/microtubule affinity-regulating kinase 3 (Homo sapiens) (UniProt P27448); assay: Inhibition of MARK3 at 10 uM
[47] = target: Megakaryocyte-associated tyrosine-protein kinase (Homo sapiens) (UniProt P42679); assay: Inhibition of MATK at 10 uM

In the case of `Cc1cc(OCc2ccc(F)cc2F)c(Br)c(=O)n1Cc1ccc(CN(C)C)cc1`, the inhibition [1] is reported as less than 50%, the inhibition [2] is reported as less than 50% and the inhibition [3] is reported as less than 50%. The Selectivity ratio [4] was 5, the inhibition [5] was less than 50% and the inhibition [6] was less than 50%. For the same compound, the inhibition [7] was less than 50%, the inhibition [8] was less than 50% and the bioavailability [9] was 91%. The inhibition [10] was less than 50%, the inhibition [11] was less than 50% and the inhibition [12] was less than 50%. The inhibition [13] was 100%, the inhibition [14] was less than 50% and the inhibition [15] was less than 50%. For the same compound, the inhibition [16] was less than 50%, the inhibition [17] was less than 50% and the inhibition [18] was less than 50%. For the same compound, the inhibition [19] was less than 50%, the IC50 [20] was 0.059 µM and the inhibition [21] was less than 50%. For the same compound, the inhibition [22] was less than 50%, the inhibition [23] was less than 50% and the inhibition [24] was less than 50%. For the same compound, the inhibition [25] was less than 50%, the inhibition [26] was less than 50% and the inhibition [27] was less than 50%. It also gave an inhibition [28] of less than 50%, an inhibition [29] of less than 50% and an inhibition [30] of less than 50%. It also gave an inhibition [31] of less than 50%, an inhibition [32] of less than 50% and an inhibition [33] of less than 50%. The inhibition [34] was less than 50%, the inhibition [35] was less than 50% and the inhibition [36] was less than 50%. The inhibition [37] was less than 50%, the inhibition [38] was less than 50% and the inhibition [39] was less than 50%. For the same compound, the inhibition [40] was less than 50%, the inhibition [41] was less than 50% and the inhibition [42] was less than 50%. The inhibition [43] was less than 50%, the inhibition [44] was less than 50% and the inhibition [45] was less than 50%. For the same compound, the inhibition [46] was less than 50% and the inhibition [47] was less than 50%.
